From patent US6369109B1, “Betulinic acid and derivatives thereof useful for the treatment of neuroectodermal tumor” (Deutsches Krebsforschungszentrum Stiftung des Offentlichen …, priority 1998, dated 2002)
Entries after “also recorded” stand apart in the source; their conditions may differ.

Legend:
IMR-5 cells = test: Specific apoptosis induction by betulinic acid derivatives; type: cell-based; settings: FIG. 17B
Experimental: (§1) Quantification of DNA fragmentation was performed by FACS analysis of propidium iodide stained nuclei as described in Nicoletti et al, 1991, J. Immunol. Methods. 139: 271-279. Cells were analyzed for DNA content by flow. cytometry (FACScan, Becton Dickinson, Heidelberg, Germany) using CELLQuest software. Early apoptotic changes were identified by staining with biotinylated annexin V (Bender Med Systems, Vienna, Austria) following the manufacturer's instructions. Annexin V binds to exposed phosphatidylserine on the surface of apoptotic cells. Koopman et al, 1994, Blood. 84:1415-1420. Cells were analyzed by flow cytometry (FAC-Scan. Becton Dickinson) using CELLQuest software.
(§2) More specifically, betulinic acid, 28-acetyl-3-β-D-glucosyl betulin (“B10”), 3-β-28-hydroxylup-20(29)-en-3-yl-β-D-glucopyranoside (“B11”), 3-β-3-hydroxylup-20(29)-en-28-yl-β-D-glucopyranoside (“B12”), and 3-(β-D-glucopyranosyloxy)lup-20(29)-en-28-oic acid (“B13”) have been tested for specific apoptosis induction using the assays shown in Example 2. See, supra. […] (FIG. 17B).

Kelly cells = test: as above; type: cell-based; settings: FIG. 17C
Experimental: as §1, §2

[1] = tested on: caspase-3, caspase-8 and PARP in cytosolic extracts from SHEP cells; test: Cleavage of caspases in cytosolic extracts by cytochrome c or AIF; type: biochemical, human; settings: FIG. 11A
Experimental: For determination of nuclear fragmentation, nuclei (10^3/μl) were incubated with mitochondria (1 μg/μl) in buffer D (10 mM HEPES, pH 7.4, 50 mM NaCl, 2 mM MgCl2, 5 mM EGTA, 1 mM DDT, 2 mM ATP, 10 mM phosphocreatine, 50 μg/ml creatine kinase, 10 μM cytochalasin B) for 2 h at 37° C. Nuclei were stained with propidium iodide ([…]) and analyzed by flow cytometry. For determination of caspase activation, cytosolic extracts (2 μg/μl) were incubated with mitochondria (1 μg/μl), cytochrome c (0.1-100 μM) or AIF-containing mitochondrial supernatant (0.5 μg/μl) in buffer D for 2 h at 37° C. Partially purified AIF (cytochrome c-free) was prepared as previously described (0.5 mg/ml, Susin et al., 1997, J. Exp. Med. 186, 5-37; Susin et al., 1996, J. Exp. Med. 184, 1331-41). Proteins were separated by 15% SDS-PAGE and Western blot analysis was performed as described above. To confirm equal loading of mitochondrial protein, all Western blots were also developed with an antibody directed against a 60 kDa mitochondrial antigen (data not shown).
Cytosolic extracts from SHEP cells were incubated with 0.1-100 μM cytochrome c. Immunodetection of caspases-3, -8 and PARP was performed as described in FIG. 9A.
Cytosolic extracts from SHEP cells transfected with a neomycin resistance vector only (Nec) or bcl-2 were incubated with partially purified AIF. Immunodetection of caspases-3, -8 and PARP was performed as described for FIG. 9A.
For determination of nuclear fragmentation, nuclei (10^3/μl) were incubated with mitochondria (1 μg/μl) in buffer D (10 mM HEPES, pH 7.4, 50 mM NaCl, 2 mM MgCl2, 5 mM EGTA, 1 mM DDT, 2 mM ATP, 10 mM phosphocreatine, 50 μg/ml creatine kinase, 10 μM cytochalasin B) for 2 h at 37° C. Nuclei were stained with propidium iodide ([…]) and analyzed by flow cytometry (Susin et al., 1997 Exp. Cell Res. 236:397-403). For determination of caspase activation, cytosolic extracts (2 μg/μl) were incubated with mitochondria (1 μg/μl), cytochrome c (10 μM) or AIF-containing mitochondrial supernatant (0.5 μg/μl) in buffer D for 2 h at 37° C. […]

[2] = tested on: melanoma cell line (MEL-2); settings: previously reported; cited from earlier work
[3] = 0.1-100 μM (Ex. 3) or 10 μM (Ex. 4) cytochrome c, partially purified AIF or AIF-containing supernatant, 11B, 16B

Molecule: C=C(C)[C@@H]1CC[C@]2(CO)CC[C@]3(C)[C@H](CC[C@@H]4[C@@]5(C)CC[C@H](O[C@@H]6O[C@H](CO)[C@@H](O)[C@H](O)[C@H]6O)C(C)(C)[C@@H]5CC[C@]43C)[C@@H]12 [B11, 3-β-28-hydroxylup-20(29)-en-3-yl-β-D-glucopyranoside]
- apoptotic activity compared to betulinic acid (IMR-5 cells): about the same activity as betulinic acid
- apoptotic activity compared to betulinic acid (Kelly cells): at least as high as betulinic acid

Molecule: C=C(C)C1CCC2(COC3OC(CO)C(O)C(O)C3O)CCC3(C)C(CCC4C5(C)CCC(O)C(C)(C)C5CCC43C)C12 [B12, 3-β-3-hydroxylup-20(29)-en-28-yl-β-D-glucopyranoside]
- apoptotic activity compared to betulinic acid (IMR-5 cells): enhanced apoptotic activity
- apoptotic activity compared to betulinic acid (Kelly cells): at least as high as betulinic acid

Molecule: cytochrome c
- cleavage of caspase-3 in cytosolic extracts [1, 3]: triggered the proteolytic processing of caspase-3 to its active subunits; also recorded: resulted in the processing of caspase-3 and PARP
- cleavage of caspase-8 in cytosolic extracts [1, 3]: did not induce caspase-8 cleavage; also recorded: did not induce caspase-8 activation
- cleavage of PARP in cytosolic extracts ([1]; 0.1-100 μM cytochrome c): caused caspase-mediated cleavage of PARP

Molecule: C=C(C)C1CCC2(C(=O)O)CCC3(C)C(CCC4C5(C)CCC(OC6OC(CO)C(O)C(O)C6O)C(C)(C)C5CCC43C)C12 [B13, 3-(β-D-glucopyranosyloxy)lup-20(29)-en-28-oic acid]
- apoptotic activity compared to betulinic acid (IMR-5 cells): enhanced apoptotic activity
- apoptotic activity compared to betulinic acid (Kelly cells): at least as high as betulinic acid

Molecule: C=C(C)C1CCC2(COC(C)=O)CCC3(C)C(CCC4C5(C)CCC(OC6OC(CO)C(O)C(O)C6O)C(C)(C)C5CCC43C)C12 [B10, 3β-28-(acetyloxy)lup-20(29)-en-3-yl-β-D-glucopyranoside]
- apoptotic activity compared to betulinic acid (IMR-5 cells): enhanced apoptotic activity
- apoptotic activity compared to betulinic acid (Kelly cells): at least as high as betulinic acid

Molecule: C=C(C)[C@@H]1CC[C@]2(C(=O)O)CC[C@]3(C)[C@H](CC[C@@H]4[C@@]5(C)CC[C@H](O)C(C)(C)[C@@H]5CC[C@]43C)[C@@H]12 [betulinic acid, 3β-3-hydroxylup-20(29)-en-28-oic acid]
- cytotoxicity [2]: exert cytotoxicity
